Paper PMC12455130, “Multifunctional molecular agent for tau-targeted combinational therapy of Alzheimer’s disease” (The Journal of Biological Chemistry, 2025)

Columns and labels:
[1] = system: tau-infected SK-N-SH cells; assay: Immunofluorescence / ThS staining of intracellular tau aggregation; format: cell-based, human; details: 1.5 μM R3 aggregates, 10 μM inhibitor; for fluorescence intensity of ThS against the control group: ImageJ
Experimental: The red fluorescence of antitau antibody (Cy3-AB) staining marked for Pan Tau protein. […] Finally, the fluorescence intensity was quantitatively analyzed via ImageJ (National Institutes of Health).
Figure 8 Confocal laser scanning microscopy images of SK-N-SH cells incubated with R3 aggregates and different inhibitors. 2-(4-Amidinophenyl)-6-indolecarbamidine dihydrochloride (DAPI) for nuclei staining (blue); Thioflavin S (ThS) for aggregated Tau protein (green); Cy3 marked anti-Tau antibody (Cy3-AB) for Pan Tau protein (all conformations of Tau) (red). Concentrations of R3 aggregates and inhibitors are 1.5 μM and 10 μM, respectively. Scale bar represents 25 μm.
Tau-infected pathological model cell lines were constructed by human neuroblastoma SK-N-SH cells using R3 aggregates as inducer, referring our earlier article ([28]). R3 aggregates were obtained from coincubation of 15 μM R3 peptide with 3.8 μM heparin in PBS at 37 °C for 4 h. Then, the solution was diluted to 1.5 μM in the culture medium. SK-N-SH cells were seeded onto 24-well plates (1 × 10^5/well) for 24 h. Then, 10 μM of different compounds (inhibitors) per well was added and incubated for 2 h. After changing the culture medium, these cells were treated with 1.5 μM R3 aggregates for 12 h and then further continued incubation for 12 h.
The samples were successively treated with 4% paraformaldehyde and 0.1% Triton X-100 for 15 min each and washed three times with PBS. Blocked with 5% goat serum for 30 min, the samples were incubated with rabbit anti-Tau antibody (1:200 dilution) at 4 °C for 24 h and washed three times with PBS. Then they were incubated with Cy3-conjugated Donkey Anti-Rabbit IgG (1:1000 dilution) at 37 °C for 1 h and washed three times with PBS. Subsequently, 60 μM ThS was added to stain tau aggregates for 15 min and washed three times with PBS. Finally, cells were stained with 2-(4-amidinophenyl)-6-indolecarbamidine dihydrochloride (0.02%) for 5 min to staining nuclei and washed three times with PBS. The antifade mounting medium was used for cell slides to ensure fluorescence. The fluorescence signals were monitored using a CLSM (Leica TCS SP8).
Fig. S16 Quantitatively analysis of the fluorescence intensity in the Confocal laser scanning microscopy images ([…]) of SK-N-SH cells incubated with R3, heparin and different inhibitors by ImageJ software. Florescence intensity per cell (n = 8), analyzed by ImageJ software.

SK-N-SH cells = assay: Cell rescue assay (CCK-8) against R3 aggregates / Cu2+; format: cell-based, human; details: R3, heparin, Cu2+ preincubated with compound (20 μM), diluted 1:1, 24 h
Experimental: In this regard, we next evaluated the detoxification effect of 4GA and 2GA in the SK-N-SH cells treated with different components with possible cytotoxicity, including R3, R3 aggregates (R3 + heparin), Cu^2+, 4GA, 2GA, GA, and 4ME in indicated conditions, as shown in Figure 6B.
For cell rescue assay, 30 μM R3, 7.5 μM heparin was incubated in FBS–DMEM containing 7.5 μM Cu^2+ and different compounds (20 μM) at 37 °C for 1 h. Then, 500 μl of preincubated R3 solution was diluted with 500 μl fresh FBS–DMEM, and the mixture was used to replace the old medium after the cell attached to the 96-well plate. After cultured for 24 h, CCK-8 was used to measure the cell viability.

R3 fibrils = target: T1, R3 fibrils (Homo sapiens, UniProt P10636); assay: TEM of Cu2+-promoted R3 fibrils; format: biochemical; details: R3 15 μM, Cu2+ 3.8 μM, heparin 3.8 μM, compound 10 μM, Hepes pH 7.4
T1 construct: R3 (^306VQIVYK PVDLSK VTSKCG SLGNIH HKPGGG Q^336) and rabbit anti-tau antibody were purchased from MuJin; purchased MuJin
Experimental: However, the influence of 4ME or GA on Cu^2+-promoted R3 aggregation was small, because these compounds could only suppress Cu^2+ promotion effect; their effect on R3 self-aggregation was almost negligible.
For detecting the inhibitory efficiency of inhibitors, 15 μM R3, 3.8 μM heparin, and 4GA/2GA/4ME/GA (0, 10, and 40 μM) in 50 mM Tris–HCl buffer (pH 7.4) was incubated at 37 °C for 3 h, respectively. For exploring the effect of Cu^2+ on R3 aggregation, 15 μM R3, 3.8 μM heparin was mixed in the presence or the absence of 3.8 μM Cu^2+ in 50 mM Hepes buffer (pH 7.4). Then, 10 μM 4GA/2GA/4ME/GA was added to the solution. After 3 h incubation, 10 μl of each solution was applied on a carbon support membrane, followed by 10 μl of 2% uranyl acetate, and dried at room temperature. The operation was carried out on transmission electron microscope (JEM-2100, provieded by JEOL).

[2] = system: ROS generated by R3 + Cu^2+; assay: ROS in solution, DCFH fluorescent probe; format: biochemical
Excerpt: In this experiment, the fluorescent probe, 2′,7′-dichlorodihydrofluorescein (DCFH), was used to detect the formation of ROS in solution.
Figure 7 The scavenge ability of 4GA and 2GA on ROS.A, time-dependent experiment for monitoring ROS level in solution at different conditions, using the fluorescent probe 2′,7′-dichlorodihydrofluorescein (DCFH). B, ROS levels in SK-N-SH cells treated with different conditions detected by the fluorescent probe of DCFH in flow cytometry. The data were reported as the mean ± SD, n = 3. Statistical analysis was performed using a one-way ANOVA test, ∗p < 0.05, ∗∗p < 0.01, and ∗∗∗p < 0.001 (n = 3). C, confocal laser scanning microscopy (CLSM) analysis of the intracellular ROS level stained with DCFH. Scale bar represents 12.5 μm. 2GA, (4,10-dimethyl-1,4,7,10-tetraazacyclododecane-1,7-diyl)bis((3,4,5-trihydroxyphenyl)methanone); 4GA, (1,4,7,10-tetraazacyclododecane-1,4,7,10-tetrayl)tetrakis((3,4,5-trihydroxyphenyl)methanone); ROS, reactive oxygen species.

T1 sequence (P10636 623-653 limits assumed): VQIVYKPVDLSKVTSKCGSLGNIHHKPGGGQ

SMILES | intracellular tau aggregation (ThS green fluorescence, CLSM) [1] | rescue of cell viability against R3 aggregates or Cu2+ (SK-N-SH cells) | morphology of Cu2+-promoted R3 fibrils (TEM) (R3 fibrils) | DCFH fluorescence (ROS) in R3 + Cu2+ solution [2] | fluorescence intensity of ThS against the control group [1] [%]
CN1CCN(C)CCN(C)CCN(C)CC1 [4ME, 1,4,7,10-tetramethyl-1,4,7,10-tetraazacyclododecane, reference compound] | slight inhibitory efficiency | only a limited rescue ability | small |  | 
O=C(O)c1cc(O)c(O)c(O)c1 [GA, gallic acid, reference compound] | slight inhibitory efficiency | only a limited rescue ability | small | could also quench the DCFH fluorescence | 
O=C(c1cc(O)c(O)c(O)c1)N1CCN(C(=O)c2cc(O)c(O)c(O)c2)CCN(C(=O)c2cc(O)c(O)c(O)c2)CCN(C(=O)c2cc(O)c(O)c(O)c2)CC1 [4GA, (1,4,7,10-tetraazacyclododecane-1,4,7,10-tetrayl)tetrakis((3,4,5-trihydroxyphenyl)methanone)] | the green fluorescence disappeared | dramatically elevates the cell viability | the resulting filaments become sparse and small | returning to the level observed in the R3 solution without Cu^2+ | 3.3
CN1CCN(C(=O)c2cc(O)c(O)c(O)c2)CCN(C)CCN(C(=O)c2cc(O)c(O)c(O)c2)CC1 [2GA, (4,10-dimethyl-1,4,7,10-tetraazacyclododecane-1,7-diyl)bis((3,4,5-trihydroxyphenyl)methanone)] | the green fluorescence disappeared | dramatically elevates the cell viability | the resulting filaments become sparse and small | returning to the level observed in the R3 solution without Cu^2+ | 4.6
